Reference: patent US12606833B2, “Modified mini-nucleosome core proteins and use in nucleic acid delivery” (priority 2020, dated 2026)
Where no end group is shown, it is not given here. [ ]: non-standard residue; d: D form. LINKER = not defined here

Key:
retina and RPE cells = assay: GFP expression in retina and RPE after intravitreal injection in mice; assay type: in vivo, Balb/c mice; settings: 1.5 micrograms, GFP plasmid, FIGS. 10 and 12
Description: In the present Example, Balb/c mice were anesthetized by IP injection with Ketamine/Xylazine (90-100 mg/kg+10 mg/kg) and positioned underneath a microscope. Mice eyes were dilated with topical Tropicamide (1%) and 1 μl of loaded mini-nucleosomes (total dose 1.5 micrograms in mice) were injected into the vitreous cavity using 32 gauge blunt needle passing through the incision made by a 25-gauge needle below the limbus. At various time points, mice were perfused with 10 ml of 1xPBS, and then sacrificed using standard techniques. Mice were enucleated and eyecups were collected and incubated in 4% paraformaldehyde overnight. The eyecups were washed with 1xPBS, then immersed in 15% sucrose for few hours and then in 30% sucrose solution overnight for cryopreservation. The eyecups were then placed in a plastic vial and frozen using OCT compound for cryo-sectioning. 10-micron thick tissue sections were obtained for staining. The retinal sections were mounted with mounting media with or without DAPI, coverslip and sealed. Images were acquired by Leica SP5. For wholemount imaging, eyecups were fixed in 4% paraformaldehyde overnight. Eyecups were washed in 1xPBS, retina was removed and the remaining eyecup or RPE wholemount was processed for staining. The RPE tissue was wholemounted with mounting media, coverslip and sealed. Images were acquired by Leica SP5.

[1] = Transmission Electron Microscopy (TEM) of loaded mini-nucleosomes; assay type: physicochemical; settings: luciferase plasmid (SEQ ID NO: 396) condensed with core protein, formulated in water
Description: To form loaded mini-nucleosomes represented in FIG. 7, core proteins were synthesized by solid phase synthesis using trifluoroacetate buffers. 200 micrograms of DNA (SEQ ID NO: 396) were added to 1 milligram of lyophilized core proteins and vortexed together, and purified to produce loaded mini-nucleosomes (FIG. 7). Buffer exchange was performed and final formulation of mini-nucleosome was made in sterile, endotoxin free water. 1 microgram of each kind of mini-nucleosomes was diluted in water and then placed on grids that were stained with freshly prepared in 0.75% uranyl acetate in methanol solution for two minutes. Grids were dipped in 100% ethanol and then blotted into lens absorbent paper. The grids were then air-dried for few minutes with film side up and taken for imaging with Hammatsu ORCA HR camera (FIG. 7).

RPE cells = assay: GFP expression in rat retinal tissue after intraocular delivery; assay type: in vivo; settings: rat eyes, FIG. 11
From the text: To selectively transduce photoreceptors, the present Example utilized core proteins like those of SEQ ID NO:394. […] This neuronal attachment domain has not been previously applied for non-viral vectors to target neurons. The present disclosure provides that this neuronal targeted vector can transduce neurons in the brain via local or systemic administration. The present disclosure further provides for targeting photoreceptor binding and internalization by incorporating lectin binding domains (described in Table 4) in mini-nucleosomes for attachment to photoreceptor extracellular matrix to enhance uptake. […] Moreover, more than one domain could be utilized to selectively transduce a plurality of diverse cell types. This core protein (SEQ ID NO: 390) with integrin binding properties may also be utilized for delivery of nucleic acids to other cell types that express high levels of aVB5 integrin. The present disclosure further provides use of other intra-ocular injection techniques such as subretinal, suprachoroidal, intra-cameral, or topical administration to target photoreceptors, RPE, Mueller cells or other cell types in the retina.

lung epithelium = assay: GFP expression after intranasal delivery (lung sections with CFTR staining, whole lung imaging, trachea); assay type: in vivo, Balb/c mice; settings: 5-week post injection, FIGS. 15 and 16
Description: In the present Example, Balb/c mice were anesthetized by IP injection with Ketamine/Xylazine (90-100 mg/kg+10 mg/kg) and the anesthetized mice were positioned underneath a microscope for visual of the nasal area for intranasal delivery. 1 μl of loaded mini-nucleosome (SEQ ID NO: 390+GFP plasmid) solution was delivered into the nasal cavity every few seconds until 12 microliters were delivered to each nasal side. Total dose of 25 micrograms was delivered. Following sacrifice, mice lung was processed to obtain 10 micron thick sections. Sections were washed in PBS and incubated in blocking buffer (0.1% TritonX-100, 1% BSA, 3% donkey serum) for 1 hr and then incubated in CFTR antibody (prepared on blocking buffer) blocking buffer overnight at 4 degree Celsius. Next day wash in PBS 3×5 min and incubated in AlexaFlour-555 (Donkey Anti-rabbit IgG secondary) in blocking buffer at RT for 1 hour and washed in PBS 3×5 min. Mounting media was added and coverslip was applied and sealed. Native fluorescence of GFP was obtained in the 486 nm channel of Leica SP5 scope in the 486-nm wavelength and CFTR expression in the 555-nm channel.
In the present Example, whole lung tissue and biodistribution via mini-nucleosome was also evaluated (FIG. 15). […] Whole tissues were placed in the Odyssey imager for detecting GFP native fluorescence.

skeletal muscle cells = assay: GFP expression in leg muscle after intramuscular injection (dystrophin immunolabeling); assay type: in vivo, Balb/c mice; settings: 17.5 μg per leg, 3-month time point, FIG. 18
Description: Balb/c mice were anesthetized by IP injection with Ketamine/Xylazine (90-100 mg/kg+10 mg/kg) and several loaded mini-nucleosomes were injected into both leg muscle at 17.5 μg doses per leg using an insulin syringe (Total dose 35 micrograms per mice). Mice were sacrificed at various time points and leg muscle were obtained for tissue sections. […] One skilled in the art may contemplate combining such domains with other domains known for muscle tropism.
To validate muscle specificity of expression of genes encoded by the nucleic acid cargo, we utilized dystrophin immunolabeling as an endogenous secondary marker. […] Native fluorescence of GFP was obtained in the 486-nm channel of Leica SP5 scope. Dystrophin in red is the RFP channel (555-nm). Untransduced muscle cells in figure also serve as internal control for differentiation between GFP signal and autofluorescence.

Row | Substance | GFP expression / uptake in mouse retina and RPE (retina and RPE cells) | Shape of loaded mini-nucleosome (TEM) [1] | GFP fluorescence in muscle tissue sections (skeletal muscle cells) | further results
1 | KKKRK-[LINKER]-KTKKK-[LINKER]-AK-[LINKER]-KALKKK-[LINKER]-KKGKKKKRRRRKAAPKK (KKKRK[LINKER]KTKKK[LINKER]AK[LINKER]KALKKK[LINKER]KKGKKKKRRRRKAAPKK; not fully specified; numbers in words are those of the source; reading uncertain; also: linkers of unspecified length between segments (after 5, 10, 12, 18)) [SEQ ID NO: 392] | enhanced uptake into the RPE | – | – | –
2 | KKKRK-[LINKER]-NGR-[LINKER]-KRKRKKRHRKKKKRRRRKRHRK-[LINKER]-NGR-[LINKER]-KKK (KKKRK[LINKER]NGR[LINKER]KRKRKKRHRKKKKRRRRKRHRK[LINKER]NGR[LINKER]KKK; not fully specified; numbers in words are those of the source; reading uncertain; also: linkers of unspecified length between segments (after 5, 8, 30, 33)) [SEQ ID NO: 390] | – | rod/lobular shaped | – | GFP expression in rat retinal tissue (RPE cells): transduce RPE cells in rat eyes exclusively; GFP native fluorescence in whole lung tissue / sustained expression (lung epithelium): high levels of sustained expression
3 | KKKRHRKRKRKRKRRRRKKK-[LINKER]-ASSLNIAK-[LINKER]-RRRR (KKKRHRKRKRKRKRRRRKKK[LINKER]ASSLNIAK[LINKER]RRRR; not fully specified; numbers in words are those of the source; reading uncertain; also: linkers of unspecified length between segments (after 20 and 28)) [SEQ ID NO: 389] | – | – | didn't exhibit GFP fluorescence | –
4 | KKKRHRKKKKK-[LINKER]-RGD-[LINKER]-KKKK-[LINKER]-NTQIH-[LINKER]-RRRRR-[LINKER]-TPH-[LINKER]-KK (KKKRHRKKKKK[LINKER]RGD[LINKER]KKKK[LINKER]NTQIH[LINKER]RRRRR[LINKER]TPH[LINKER]KK; not fully specified; numbers in words are those of the source; reading uncertain; also: linkers of unspecified length between segments (after 11, 14, 18, 23, 28, 31)) [SEQ ID NO: 391] | – | mixture of circular and rod like molecules | sharp green fluorescence in skeletal muscle cells | –
5 | KKRHRK-[LINKER]-LRE-[LINKER]KRHRKLRRRRRLKRHRKKRHRK-[LINKER]-LRE-[LINKER]-K (KKRHRK[LINKER]LRE[LINKER]KRHRKLRRRRRLKRHRKKRHRK[LINKER]LRE[LINKER]K; not fully specified; numbers in words are those of the source; reading uncertain; also: linkers of unspecified length between segments (after 6, 9, 31, 34)) [SEQ ID NO: 394] | transduction into ganglion cells, bipolar cells and photoreceptors | – | – | –
